# Data reported in patent US10865188B2, “Dibenzo azepine compounds and their use in the treatment of otic diseases and disorders” (Pipeline Therapeutics, Inc., priority 2015, dated 2020).
# Read-outs that look alike come from different tables or passages of the source.
# Tests used:
# [1] = system: mice; experiment: Auditory brainstem response (ABR) hearing threshold; assay type: in vivo; conditions: formulations of Examples 3(c) and 3(d) (2% w/v crystalline, poloxamer 407)
# Experimental: Surgery was performed on naïve mice or mice with noise or pharmacologically-damaged ears. The animals were anesthetized with isoflurane and an 8 mm retroauricular incision was made to the lower caudal edge of the pinna. The skin was retracted and the fatty tissue was blunt dissected away from where the facial nerve and muscle come together. The muscle was retracted to reveal an area in the tympanic bulla where the bone was thin. A 30 g needle was used to drill a hole in the exposed thin portion of the otic bulla. A Hamilton syringe equipped with a 32 g blunt needle was inserted into the opening of the otic bulla. The drug formulation was delivered by injection and the needle removed. Wound closure was made with tissue glue.
# Naïve mice or mice at various times after either noise or pharmacological deafening were anesthetized with ketamine/xylazine/acepromazine and the auditory brainstem response was determined in both ears using a Tucker Davis (Alachua, Fla.) RZ6 apparatus. The mice were exposed to clicks or pure tones of 4, 8, 16, 24 and 32 kHz at 90-10 dB in 10 dB descending steps and the hearing threshold was determined.
# [2] = Guinea pig PK after transtympanic delivery (perilymph and cochlea, LC/MS/MS); assay type: in vivo; conditions: for concentration at 1 day / concentration at 7 day / concentration at 14 day / concentration at 28 day / concentration at 42 day / concentration at 56 day: male, Hartley, other: transtympanic, 30 μL, 30 μL transtympanic; for concentration at 1 day: Day 1, LLOQ = 0.08 μM; for concentration at 7 day: Day 7, LLOQ = 0.08 μM; for concentration at 14 day: Day 14, LLOQ = 0.08 μM; for concentration at 28 day: Day 28, LLOQ = 0.08 μM; for concentration at 42 day: Day 42, LLOQ = 0.08 μM; for concentration at 56 day: Day 56, LLOQ = 0.08 μM
# Excerpt: Male Hartley guinea pigs (300-350 g) were anesthetized with ketamine and xylazine. Thirty microliters of an aqueous pharmaceutical composition of the instant embodiments was delivered transtympanically to deposit the drug to the round window membrane. Delivery was unilateral. The animals were placed in a warm chamber in a lateral recumbent position keeping the dosed ear side up until they recover from anesthesia.
# At various timepoints after administration, the animals were euthanized by CO2 inhalation. Blood and CSF were collected and stored at −80° C. The animals were decapitated, the temporal bones removed and the bulla opened to expose the otic capsule. Ipsilateral and contralateral perilymph were collected from the apex using a microcapillary tube. The ipsilateral cochlea was removed from the otic capsule and stored at −80° C. All tissues collected were analyzed using LC/MS/MS for test compound concentration as follows. Analytical standards were prepared by spiking known concentrations of the test compound stock solutions into matrices such as plasma or artificial CSF. Fixed amounts of tissues collected and spiked standards were precipitated with acetonitrile containing buspirone as an internal standard. The precipitated samples were centrifuged at 4000 g for 10 minutes at 4° C. The supernatants were analyzed using LC-MS/MS. The LC-MS/MS system was set up using the AB Sciex 4000 Qtrap (AB Sciex, Framingham, Mass.) equipped with Agilent 1200 series HPLC and CTC PAL Autosampler (Agilent Technologies, Santa Clara, Calif.).
# Liquid compositions described herein were evaluated using the method described in Part E of the Biological Function section provided above. The liquid compositions prepared as described in Example 5(a)-5(d) were each drawn into a 1 mL syringe. Using the filled 1 mL syringe, the liquid composition was back-filled at 5° C. into a 100 μL Hamilton syringe adapted with 28 gauge needle. The Hamilton syringe was then allowed to warm to room temperature.
# Male Hartley guinea pigs (300-350 g) were anesthetized with ketamine and xylazine. Thirty microliters of the above liquid composition were delivered transtympanically to deposit the drug to the round window membrane. The delivery was unilateral. The animals were placed in a warm chamber in a lateral recumbent position keeping the dosed ear side up until they recovered from anesthesia.
# At various timepoints after administration, the animals were euthanized by CO2 inhalation. Blood and cerebrospinal fluid were collected and stored at −80° C. The animals were decapitated, the temporal bones removed and the bulla were opened to expose the otic capsule. Ipsilateral and contralateral perilymph were collected from the apex using a microcapillary tube. The ipsilateral cochlea was removed from the otic capsule and was stored at −80° C. All tissues collected were analyzed using LC/MS/MS as described in Part E of the Biological Function section above.
# The concentrations of Compound I and Compound II were measured using LC/MS/MS in both the perilymph fluid and the cochlea tissue after a transtympanic injection of an instant formulation of either the crystalline form or the amorphous form at various time points. […] Concentration of the instant compounds in the perilymph and/or cochlea tissue was above the human NSC EC50 for Atoh1, an indicator that the subject compounds may be efficacious in hair cell regeneration and hearing restoration in human. […] Table 3 below lists the results for the studies using aqueous formulations of crystalline Compound I while Table 4 below lists those for aqueous formulations of crystalline Compound II. The results for aqueous formulations of crystalline Compound I are also graphically shown in FIG. 5A and FIG. 5B while the results for aqueous formulations of crystalline Compound II are graphically shown in FIG. 6A and FIG. 6B.
# [3] = system: Atoh1; experiment: Human neural stem cell assay, Atoh1 gene expression (real-time PCR); assay type: cell-based; conditions: human neural stem cells, 7 point CRC, read-out: hNSC Atoh1 EC50
# Experimental: (§1) Neural stem cells (NSC) were derived from embryonic stem cells using a published protocol (Yuan et al., Mar. 2, 2011, PLoS ONE, 6(3):e17540). Cells were sorted and characterized at passage 3 and were expanded. Cells were then frozen at passage 5. Cells were maintained in NSC media (DMEM/F12, N2 (1×), B27(1×) (Invitrogen), and Pen/Strep (1×) (Life Technologies) with 20 ng/ml bFGF (BD Bioscience/Corning)). On day 1, cells were plated in 96 well plates that have been previously coated with poly-ornithin and laminin, 60,000 cells/well in 100 μl of media. On day 2, spent media was removed, and 180 μl of fresh media was added to the cells. Later that same day (day 2), cells were treated with 20 μl of NSC media containing test compounds (7 point CRC). On day 3, spent media was removed and 140 μl of RLT/bME was added to the cells. RNA was extracted using the QiaCube (Qiagen®, Germantown, Md., USA) using the total RNA extraction+DNAse protocol. RNA was then reverse-transcribed to cDNA using iScript (Bio-Rad, Hercules, Calif., USA). cDNA was then used for real-time PCR analysis using iTaq Sybergreen (BioRad). Expression of Atoh1, Hes5, Hes1, Myosin7a genes was evaluated using CFX96 or CFX384 (Bio-Rad). HPRT1 was used as a reference gene. Analysis was done using Microsoft® Excel® and CBIS (ChemInnovation Software, Inc., San Diego, Calif., USA). […]
# [4] = system: HES5; experiment: Human neural stem cell assay, Hes5 gene expression (real-time PCR); assay type: cell-based; conditions: human neural stem cells, 7 point CRC, read-out: hNSC HES5 IC50
# Experimental: as §1
# [5] = cochlea, Amorphous form (Example 5(d)), read-out: Cochlea Average concentration
# [6] = cochlea, Crystalline form (Example 5(c)), read-out: Cochlea Average concentration
# [7] = perilymph, Amorphous form (Example 5(d)), read-out: perilymph Average concentration
# [8] = perilymph, Crystalline form (Example 5(c)), read-out: Perilymph Average concentration
smiles,measurement,setting,value
"CN1C(=O)[C@@H](NC(=O)[C@](C)(F)C(=O)NCC(F)(F)C(F)(F)F)c2ccccc2-c2ccccc21 [Compound II, (2R)-2-fluoro-2-methyl-N—[(S)-5-methyl-6-oxo-6,7-dihydro-5H-dibenzo[b,d]azepin-7-yl]-N′-(2,2,3,3,3-pentafluoropropyl)malonamide]",ABR Threshold Improvement,[1]; 16 kHz,8 dB
same,ABR Threshold Improvement,[1]; 24 kHz,11 dB
same,ABR Threshold Improvement,[1]; 32 kHz,7 dB
same,concentration in the perilymph and the cochlea compared with the human NSC EC50 for Atoh1,"[2]; dosed as the amorphous form, transtympanic",above the human NSC EC50 for Atoh1 at 1 day and 7 days
same,concentration in the perilymph and the cochlea compared with the human NSC EC50 for Atoh1,"[2]; dosed as the crystalline form, transtympanic",above the human NSC EC50 Atoh1 from day 1 to day 42
same,concentration at 1 day,[2]; [5],829 µM
same,concentration at 7 day,[2]; [5],18.1 µM
same,concentration at 14 day,[2]; [5],0 µM
same,concentration at 28 day,[2]; [5],0 µM
same,concentration at 1 day,[2]; [6],5280 µM
same,concentration at 7 day,[2]; [6],46.1 µM
same,concentration at 14 day,[2]; [6],222 µM
same,concentration at 28 day,[2]; [6],7.6 µM
same,concentration at 42 day,[2]; [6],0.6 µM
same,concentration at 56 day,[2]; [6],0 nM
same,concentration at 1 day,[2]; [7],159 µM
same,concentration at 7 day,[2]; [7],178 µM
same,concentration at 14 day,[2]; [7],0 µM
same,concentration at 28 day,[2]; [7],0 µM
same,concentration at 1 day,[2]; [8],502 µM
same,concentration at 7 day,[2]; [8],26 µM
same,concentration at 14 day,[2]; [8],26 µM
same,concentration at 28 day,[2]; [8],2.2 µM
same,concentration at 42 day,[2]; [8],0.3 µM
same,concentration at 56 day,[2]; [8],0 nM
same,"exposure to the inner ear, crystalline formulation versus respective amorphous formulation","[2]; transtympanic, formulations of Example 5(a)-5(d)",longer exposure
same,EC50,[3],23 nM
same,IC50,[4],23 nM
